Measurements reported in US8282688B2, “Laccase mediators and methods of use” (Danisco US Inc., priority 2006, dated 2012).
Several values for one entry are separate records, joined by “and”; a condition that tells them apart may be missing. Equal entries are not always repeated.

Experiments:
Assay type in all cases: biochemical
Cerrena sp. laccase = assay: Soluble indigo bleaching at two pH values, Cerrena sp. laccase (Example 3)
Description: (§1) A saturated solution of indigo in N-methylpyrrolidone (NMP) was prepared by stirring indigo (30 mg) in NMP (10 ml) at room temperature for 5 hours. The NMP solution was diluted 10-fold into an aqueous buffer solution resulting in a blue solution. For example, dilution into 50 mM sodium acetate buffer at pH 5, or 50 mM sodium phosphate buffer at pH 7. Solutions were shaken well immediately before use.
(§2) The assay for the bleaching of the solubilized indigo substrate was performed in a 96-well microtitre plate whereby each well received the soluble indigo solution in 50 mM sodium acetate buffer at pH 5 (180 uL), laccase (10 ppm enzyme) and mediator solution (from a 20 mM stock solution in methanol). The total volume of each well was adjusted to 200 uL with deionzed water. A control containing laccase only was run in duplicate. The plate was sealed and incubated at 50° C. for 2 hours at 800 rpm on a heated agitator (Thermomixer, Eppendorf). Following this period, the plates were unsealed and a solution of ascorbic acid (20 uL of a 10% aqueous solution) added to each well in order to reduce the oxidized forms of the mediators. The extent of indigo bleaching was then assessed by determining the absorbance for each well at 600 nm using a microtitre plate reader. The lower the absorbance reading, the greater the extent of indigo bleaching.
(§3) Laccases derived from Myceliophtora (Denilite® II, Novozymes, Bagsvaerd, Denmark), Thielavia (Ecostone LCC10, AB enzymes, Darmstadt, Germany) and Cerrena sp. were assessed for their ability to bleach solubilized indigo in conjunction with low molecular weight mediators at two pH values.
(§4) Bleaching of solubilized indigo in 96-well microtitre plates was performed as described in Example 1, using 3 different laccases at pH values of 5 and 7.

[1] = system: Myceliophtora laccase (Denilite II); assay: Soluble indigo bleaching at two pH values, Myceliophtora laccase (Example 3)
Description: as §1, §2, §3, §4

C. unicolor laccase = assay: Bleaching of denim swatches with C. unicolor laccase (Example 4); set-up: key to ΔL Denim swatch Frontside / Δb Denim swatch Frontside / ΔL Denim swatch Backside / Δb Denim swatch Backside / Δa Denim swatch Backside / Δa Denim swatch Frontside: difference between initial and final CIE L*a*b* values; key to ΔE (total color difference) Denim swatch Backside / ΔE (total color difference) Denim swatch Frontside: ΔE = (ΔL²+Δa²+Δb²)^1/2 from CIE L*a*b* before/after bleaching; conditions: for ΔE (total color difference) Denim swatch Backside / ΔE (total color difference) Denim swatch Frontside / ΔL Denim swatch Backside / ΔL Denim swatch Frontside / Δa Denim swatch Backside / Δb Denim swatch Backside / Δb Denim swatch Frontside: laccase 20 ppm, pH 6, 50° C., 2 hours
Description: Denim legs (made out of sulfur bottom/indigo dyed denim fabric from Cone Mill, style number 1662P) were pretreated with IndiAge® 2XL at a dose of 1 gram per liter in a 50 lb lab scale tumbling washer. The liquor ratio was 6 to 1 (5 kg substrate in 30 liters of water) and the treatment was performed at 55° C. at pH 4.5 for 1 hour. A warm rinse followed the cellulase treatment, after which the fabric was dried in a tumble dryer. A punch press was used to cut ⅝ inch denim disks from IndiAge® 2XL pretreated denim legs. Each denim disk is pre read with a Chroma Meter CR-200 by Minolta in order to determine the CIE L*a*b* values of both the front and backside of the fabric disk.
One denim disk is placed in each well of two duplicate 12 well micro-titer plates. Each well received C. unicolor laccase (20 uL of 1/20 dilution, approx. 20 ppm), mediator (200, 100, 50 or 20 uL of a 20 mM stock solution in methanol) and 50 mM potassium phosphate buffer, pH 6 for a total volume of 2 mL/well. The mediators were methyl syringate (MS), 4-cyano-2,6-dimethoxyphenol (SN) and 3,4,5-trimethoxyphenol (TMP). The plates were sealed and incubated at 50° C. for 2 hours at 150 rpm in a standard incubator. Following this period, the swatches were removed from the plates and carefully placed on a filter paper in a Buchner funnel and washed with copious amounts of water, followed by drying of the residual water under high vacuum overnight. The swatches were then re-read with the chromometer in order to determine the CIE L*a*b* values of both the front and backside of the disk following bleaching. The total color difference (ΔE) is calculated from the difference between the initial and final CIE L*a*b* values according to the formula ΔE=(ΔL^2+Δa^2+Δb^2)^1/2 The total color differences (ΔE) as a function of mediator concentration are plotted in FIGS. 5 and 6.

COc1cc(C(N)=O)cc(OC)c1O [SA, 4-carboxamido-2,6-dimethoxyphenol]
ΔA600 Cerrena (Cerrena sp. laccase; pH 5, mediator 250 uM): 0.142
ΔA600 Cerrena (Cerrena sp. laccase; pH 7, mediator 250 uM): 0.128
ΔA600 Myceliophtora ([1]; pH 5, mediator 250 uM): 0.254
ΔA600 Myceliophtora ([1]; pH 7, mediator 250 uM): 0.220

COc1cc(C#N)cc(OC)c1O [SN, 4-cyano-2,6-dimethoxyphenol]
effectiveness as mediator for denim swatch bleaching (C. unicolor laccase; C. unicolor laccase 20 ppm, 200-2000 uM mediator): most effective mediator
ΔE (total color difference) Denim swatch Backside (C. unicolor laccase; mediator 200 uM): 10.39 and 10.37
ΔE (total color difference) Denim swatch Frontside (C. unicolor laccase; mediator 200 uM): 7.24 and 8.51
ΔL Denim swatch Backside (C. unicolor laccase; mediator 200 uM): 8.38 and 8.67
ΔL Denim swatch Frontside (C. unicolor laccase; mediator 200 uM): 6.63 and 7.98
Δa Denim swatch Backside (C. unicolor laccase; mediator 200 uM): 0.54 and 0.38
Δb Denim swatch Backside (C. unicolor laccase; mediator 200 uM): 6.12 and 5.67
Δb Denim swatch Frontside (C. unicolor laccase; mediator 200 uM): 2.57 and 2.67
ΔE (total color difference) Denim swatch Backside (C. unicolor laccase; mediator 500 uM): 13.43 and 14.11
ΔE (total color difference) Denim swatch Frontside (C. unicolor laccase; mediator 500 uM): 15.59 and 13.17
ΔL Denim swatch Backside (C. unicolor laccase; mediator 500 uM): 10.71 and 11.6
ΔL Denim swatch Frontside (C. unicolor laccase; mediator 500 uM): 14.46 and 12.06
Δa Denim swatch Backside (C. unicolor laccase; mediator 500 uM): 0.35 and 0.38
Δb Denim swatch Backside (C. unicolor laccase; mediator 500 uM): 8.1 and 8.03
Δb Denim swatch Frontside (C. unicolor laccase; mediator 500 uM): 5.51 and 4.92
ΔE (total color difference) Denim swatch Backside (C. unicolor laccase; mediator 1000 uM): 13.98 and 15.19
ΔE (total color difference) Denim swatch Frontside (C. unicolor laccase; mediator 1000 uM): 14.75 and 14.92
ΔL Denim swatch Backside (C. unicolor laccase; mediator 1000 uM): 11.45 and 12.1
ΔL Denim swatch Frontside (C. unicolor laccase; mediator 1000 uM): 13.54 and 13.84
Δa Denim swatch Backside (C. unicolor laccase; mediator 1000 uM): 0.07 and 0.14
Δb Denim swatch Backside (C. unicolor laccase; mediator 1000 uM): 8.02 and 9.19
Δb Denim swatch Frontside (C. unicolor laccase; mediator 1000 uM): 5.47 and 4.98
ΔE (total color difference) Denim swatch Backside (C. unicolor laccase; mediator 2000 uM): 15.31 and 16.59
ΔE (total color difference) Denim swatch Frontside (C. unicolor laccase; mediator 2000 uM): 16.03 and 14.48
ΔL Denim swatch Backside (C. unicolor laccase; mediator 2000 uM): 12.34 and 13.58
ΔL Denim swatch Frontside (C. unicolor laccase; mediator 2000 uM): 14.79 and 13.23
Δb Denim swatch Backside (C. unicolor laccase; mediator 2000 uM): 9.06 and 9.52
Δb Denim swatch Frontside (C. unicolor laccase; mediator 2000 uM): 5.8 and 5.58
